# Experimental data from patent US20160122320A1, “USEFUL COMBINATIONS OF MONOBACTAM ANTIBIOTICS WITH BETA-LACTAMASE INHIBITORS” (Basilea Pharmaceutica AG, priority 2005, published 2016).
# Where a name gives a salt, the structure may show the parent alone.
# How the values were obtained:
# Test in all cases: MIC, NCCLS broth microdilution
# Assay type in all cases: cell-based
# [1] = system: Stenotrophomonas malthophilia 1AC736; details: for MIC of antibiotic at fixed inhibitor concentration (4 mg/L): Stenotrophomonas malthophilia 1AC736, MIC of antibiotic compound 1 with the labelled bridged monobactam of formula II and clavulanate, 4 mg/L each; for MIC of antibiotic / MIC of antibiotic at fixed inhibitor concentration of 4 mg/L: Stenotrophomonas maltophilia 1AC736; for MIC of antibiotic: antibiotic alone, no inhibitor
# Enterobacter cloacae P99 = details: for MIC of antibiotic at fixed inhibitor concentration (4 mg/L): MIC of antibiotic compound 1 with the labelled bridged monobactam of formula II and clavulanate, 4 mg/L each; for MIC of antibiotic: antibiotic alone, no inhibitor
# Serratia marcescens S6 = details: for MIC of antibiotic at fixed inhibitor concentration (4 mg/L): MIC of antibiotic compound 1 with the labelled bridged monobactam of formula II and clavulanate, 4 mg/L each; for MIC of antibiotic: antibiotic alone, no inhibitor
# Method: (§1) Antimicrobial activity of the compounds and of their combinations was determined against a selection of organisms according to the standard procedures described by the National Committee for Clinical Laboratory Standards (National Committee for Clinical Laboratory. Standards (2000). Methods for Dilution Antimicrobial Susceptibility Tests for Bacteria That Grow Aerobically-Fifth Edition: Approved Standard M7-A5. NCCLS, Wayne, Pa., USA).
# (§2) In all cases the final concentration of DMSO incubated with the bacteria is less than or equal to 1%. […] Plates were incubated overnight at an appropriate temperature (30° C. or 37° C.) and optical densities assessed by eye. The MIC value is defined as the lowest compound concentration completely inhibiting visible growth of the test organism. When combinations between compounds of formula I with compounds of formula II and are evaluated the compounds of formula I are tested in dilution series as described above while the compounds of formula II and III-XIII were present in all wells at a constant concentration of 4 μg/mL each.
# [2] = system: Pseudomonas aeruginosa 1973E; details: for MIC of antibiotic at fixed inhibitor concentration (4 mg/L): MIC of antibiotic compound 1 with the labelled bridged monobactam of formula II and clavulanate, 4 mg/L each; for MIC of antibiotic: antibiotic alone, no inhibitor
# Method in brief: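 Compounds were serially diluted per NCCLS M7-A5 (final DMSO no more than 1%) and incubated with bacteria overnight at 30° C. or 37° C. Visible growth was then judged by eye. For combinations, partner compounds sat in every well at a constant 4 μg/mL each.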
# [3] = system: Pseudomonas aeruginosa MK1184; details: for MIC of antibiotic at fixed inhibitor concentration (4 mg/L): MIC of antibiotic compound 1 with the labelled bridged monobactam of formula II and clavulanate, 4 mg/L each; for MIC of antibiotic: antibiotic alone, no inhibitor
# Method: as §1, §2
# [4] = system: Klebsiella pneumoniae CF104; details: for MIC of antibiotic at fixed inhibitor concentration (4 mg/L): MIC of antibiotic compound 1 with the labelled bridged monobactam of formula II and clavulanate, 4 mg/L each; for MIC of antibiotic: antibiotic alone, no inhibitor
# Acinetobacter sp. J2 = details: for MIC of antibiotic at fixed inhibitor concentration (4 mg/L): Acinetobacter sp. J2, MIC of antibiotic compound 1 with the labelled bridged monobactam of formula II and clavulanate, 4 mg/L each; for MIC of antibiotic / MIC of antibiotic at fixed inhibitor concentration of 4 mg/L: Acinetobacter baumannii J2; for MIC of antibiotic: antibiotic alone, no inhibitor
structure (smiles),measurement,setting,value
"COC(=O)c1cc(C)c[n+](CC(=O)N2CC[C@@H]3[C@H]2C(=O)N3S(=O)(=O)[O-])c1 [Compound 114, (1S,5R)-2-{2-[3-(methoxycarbonyl)-5-methylpyridinium]acetyl}-7-oxo-2,6-diazabicyclo[3.2.0]heptane-6-sulfonate, inner salt]",MIC of antibiotic at fixed inhibitor concentration (4 mg/L),[1],0.125 µg/mL
same,MIC of antibiotic at fixed inhibitor concentration (4 mg/L),Enterobacter cloacae P99,32 µg/mL
same,MIC of antibiotic at fixed inhibitor concentration (4 mg/L),Serratia marcescens S6,0.25 µg/mL
same,MIC of antibiotic at fixed inhibitor concentration (4 mg/L),[2],4 µg/mL
same,MIC of antibiotic at fixed inhibitor concentration (4 mg/L),[3],16 µg/mL
same,MIC of antibiotic at fixed inhibitor concentration (4 mg/L),[4],0.125 µg/mL
same,MIC of antibiotic at fixed inhibitor concentration (4 mg/L),Acinetobacter sp. J2,>32 µg/mL
"O=C(C[n+]1ccc2ccccc2c1)N1CC[C@@H]2[C@H]1C(=O)N2S(=O)(=O)[O-] [Compound 104, (1S,5R)-2-(2-(2-isoquinolinium)acetyl)-7-oxo-2,6-diazabicyclo[3.2.0]heptane-6-sulfonate, inner salt]",MIC of antibiotic at fixed inhibitor concentration (4 mg/L),[1],0.125 µg/mL
same,MIC of antibiotic at fixed inhibitor concentration (4 mg/L),Enterobacter cloacae P99,32 µg/mL
same,MIC of antibiotic at fixed inhibitor concentration (4 mg/L),Serratia marcescens S6,2 µg/mL
same,MIC of antibiotic at fixed inhibitor concentration (4 mg/L),[2],4 µg/mL
same,MIC of antibiotic at fixed inhibitor concentration (4 mg/L),[3],32 µg/mL
same,MIC of antibiotic at fixed inhibitor concentration (4 mg/L),[4],0.5 µg/mL
same,MIC of antibiotic at fixed inhibitor concentration (4 mg/L),Acinetobacter sp. J2,>32 µg/mL
"C[C@H]1[C@H](NC(=O)/C(=N\OCc2cc(=O)c(O)cn2O)c2csc(N)n2)C(=O)N1OCC(=O)O [Compound 22, 2-((3S,4S)-3-{(2Z)-2-(2-amino(1,3-thiazol-4-yl))-3-[(1,5-dihydroxy-4-oxo(2-hydropyridyl))methoxy]-3-azaprop-2-enoylamino}-4-methyl-2-oxoazetidinyloxy)acetic acid]",MIC of antibiotic,[1],0.5 µg/mL
same,MIC of antibiotic at fixed inhibitor concentration of 4 mg/L,[1]; with 102 and clavulanate,1 µg/mL
same,MIC of antibiotic at fixed inhibitor concentration of 4 mg/L,[1]; with 324 and clavulanate,1 µg/mL
same,MIC of antibiotic at fixed inhibitor concentration of 4 mg/L,[1]; with 324 and sulbactam,1 µg/mL
same,MIC of antibiotic,Enterobacter cloacae P99,>32 µg/mL
same,MIC of antibiotic at fixed inhibitor concentration of 4 mg/L,Enterobacter cloacae P99; with 102 and clavulanate,8 µg/mL
same,MIC of antibiotic at fixed inhibitor concentration of 4 mg/L,Enterobacter cloacae P99; with 324 and clavulanate,4 µg/mL
same,MIC of antibiotic at fixed inhibitor concentration of 4 mg/L,Enterobacter cloacae P99; with 324 and sulbactam,4 µg/mL
same,MIC of antibiotic,Serratia marcescens S6,0.13 µg/mL
same,MIC of antibiotic at fixed inhibitor concentration of 4 mg/L,Serratia marcescens S6; with 102 and clavulanate,0.25 µg/mL
same,MIC of antibiotic at fixed inhibitor concentration of 4 mg/L,Serratia marcescens S6; with 324 and clavulanate,0.13 µg/mL
same,MIC of antibiotic at fixed inhibitor concentration of 4 mg/L,Serratia marcescens S6; with 324 and sulbactam,0.13 µg/mL
same,MIC of antibiotic,[2],4 µg/mL
same,MIC of antibiotic at fixed inhibitor concentration of 4 mg/L,[2]; with 102 and clavulanate,4 µg/mL
same,MIC of antibiotic at fixed inhibitor concentration of 4 mg/L,[2]; with 324 and clavulanate,4 µg/mL
same,MIC of antibiotic at fixed inhibitor concentration of 4 mg/L,[2]; with 324 and sulbactam,4 µg/mL
same,MIC of antibiotic,[3],8 µg/mL
same,MIC of antibiotic at fixed inhibitor concentration of 4 mg/L,[3]; with 102 and clavulanate,4 µg/mL
same,MIC of antibiotic at fixed inhibitor concentration of 4 mg/L,[3]; with 324 and clavulanate,4 µg/mL
same,MIC of antibiotic at fixed inhibitor concentration of 4 mg/L,[3]; with 324 and sulbactam,4 µg/mL
same,MIC of antibiotic,[4],>32 µg/mL
same,MIC of antibiotic at fixed inhibitor concentration of 4 mg/L,[4]; with 102 and clavulanate,0.25 µg/mL
same,MIC of antibiotic at fixed inhibitor concentration of 4 mg/L,[4]; with 324 and clavulanate,0.25 µg/mL
same,MIC of antibiotic at fixed inhibitor concentration of 4 mg/L,[4]; with 324 and sulbactam,4 µg/mL
same,MIC of antibiotic,Acinetobacter sp. J2,>32 µg/mL
same,MIC of antibiotic at fixed inhibitor concentration of 4 mg/L,Acinetobacter sp. J2; with 102 and clavulanate,4 µg/mL
same,MIC of antibiotic at fixed inhibitor concentration of 4 mg/L,Acinetobacter sp. J2; with 324 and clavulanate,8 µg/mL
same,MIC of antibiotic at fixed inhibitor concentration of 4 mg/L,Acinetobacter sp. J2; with 324 and sulbactam,2 µg/mL
"CCOC(=O)Cc1ccc[n+](CC(=O)N2CC[C@@H]3[C@H]2C(=O)N3S(=O)(=O)[O-])c1 [Compound 119, (1S,5R)-2-(2-{3-[(ethoxycarbonyl)methyl]pyridinium}acetyl)-7-oxo-2,6-diazabicyclo[3.2.0]heptane-6-sulfonate, inner salt]",MIC of antibiotic at fixed inhibitor concentration (4 mg/L),[1],0.125 µg/mL
same,MIC of antibiotic at fixed inhibitor concentration (4 mg/L),Enterobacter cloacae P99,>32 µg/mL
same,MIC of antibiotic at fixed inhibitor concentration (4 mg/L),Serratia marcescens S6,0.25 µg/mL
same,MIC of antibiotic at fixed inhibitor concentration (4 mg/L),[2],4 µg/mL
same,MIC of antibiotic at fixed inhibitor concentration (4 mg/L),[3],32 µg/mL
same,MIC of antibiotic at fixed inhibitor concentration (4 mg/L),[4],0.125 µg/mL
same,MIC of antibiotic at fixed inhibitor concentration (4 mg/L),Acinetobacter sp. J2,>32 µg/mL
"O=C(C[n+]1ccc2c(c1)CCCC2)N1CC[C@@H]2[C@H]1C(=O)N2S(=O)(=O)[O-] [Compound 106, (1S,5R)-7-oxo-2-(2-(2-5,6,7,8-tetrahydroisoquinolinium)acetyl)-2,6-diazabicyclo[3.2.0]heptane-6-sulfonate, inner salt]",MIC of antibiotic at fixed inhibitor concentration (4 mg/L),[1],0.125 µg/mL
same,MIC of antibiotic at fixed inhibitor concentration (4 mg/L),Enterobacter cloacae P99,>32 µg/mL
same,MIC of antibiotic at fixed inhibitor concentration (4 mg/L),Serratia marcescens S6,0.25 µg/mL
same,MIC of antibiotic at fixed inhibitor concentration (4 mg/L),[2],4 µg/mL
same,MIC of antibiotic at fixed inhibitor concentration (4 mg/L),[3],32 µg/mL
same,MIC of antibiotic at fixed inhibitor concentration (4 mg/L),[4],0.25 µg/mL
same,MIC of antibiotic at fixed inhibitor concentration (4 mg/L),Acinetobacter sp. J2,>32 µg/mL
COc1cc(CNC(=O)N2CC[C@@H]3[C@H]2C(=O)N3S(=O)(=O)[O-])on1.[Na+] [Compound 313],MIC of antibiotic at fixed inhibitor concentration (4 mg/L),[1],0.125 µg/mL
same,MIC of antibiotic at fixed inhibitor concentration (4 mg/L),Enterobacter cloacae P99,16 µg/mL
same,MIC of antibiotic at fixed inhibitor concentration (4 mg/L),Serratia marcescens S6,0.25 µg/mL
same,MIC of antibiotic at fixed inhibitor concentration (4 mg/L),[2],4 µg/mL
same,MIC of antibiotic at fixed inhibitor concentration (4 mg/L),[3],>32 µg/mL
same,MIC of antibiotic at fixed inhibitor concentration (4 mg/L),[4],0.5 µg/mL
same,MIC of antibiotic at fixed inhibitor concentration (4 mg/L),Acinetobacter sp. J2,4 µg/mL
CC1(C)C(NC(=O)C(=NOCc2cc(=O)c(O)cn2O)c2nsc(N)n2)C(=O)N1OS(=O)(=O)O (centres unmarked) [Compound 32],MIC of antibiotic,[1],0.5 µg/mL
same,MIC of antibiotic at fixed inhibitor concentration of 4 mg/L,[1]; with 102 and clavulanate,0.5 µg/mL
same,MIC of antibiotic at fixed inhibitor concentration of 4 mg/L,[1]; with 324 and clavulanate,0.5 µg/mL
same,MIC of antibiotic,Enterobacter cloacae P99,32 µg/mL
same,MIC of antibiotic at fixed inhibitor concentration of 4 mg/L,Enterobacter cloacae P99; with 102 and clavulanate,8 µg/mL
same,MIC of antibiotic at fixed inhibitor concentration of 4 mg/L,Enterobacter cloacae P99; with 324 and clavulanate,4 µg/mL
same,MIC of antibiotic,Serratia marcescens S6,0.5 µg/mL
same,MIC of antibiotic at fixed inhibitor concentration of 4 mg/L,Serratia marcescens S6; with 102 and clavulanate,0.25 µg/mL
same,MIC of antibiotic at fixed inhibitor concentration of 4 mg/L,Serratia marcescens S6; with 324 and clavulanate,0.25 µg/mL
same,MIC of antibiotic,[2],16 µg/mL
same,MIC of antibiotic at fixed inhibitor concentration of 4 mg/L,[2]; with 102 and clavulanate,8 µg/mL
same,MIC of antibiotic at fixed inhibitor concentration of 4 mg/L,[2]; with 324 and clavulanate,8 µg/mL
same,MIC of antibiotic,[3],4 µg/mL
same,MIC of antibiotic at fixed inhibitor concentration of 4 mg/L,[3]; with 102 and clavulanate,4 µg/mL
same,MIC of antibiotic at fixed inhibitor concentration of 4 mg/L,[3]; with 324 and clavulanate,4 µg/mL
same,MIC of antibiotic,[4],>32 µg/mL
same,MIC of antibiotic at fixed inhibitor concentration of 4 mg/L,[4]; with 102 and clavulanate,1 µg/mL
same,MIC of antibiotic at fixed inhibitor concentration of 4 mg/L,[4]; with 324 and clavulanate,2 µg/mL
same,MIC of antibiotic,Acinetobacter sp. J2,>32 µg/mL
same,MIC of antibiotic at fixed inhibitor concentration of 4 mg/L,Acinetobacter sp. J2; with 102 and clavulanate,4 µg/mL
same,MIC of antibiotic at fixed inhibitor concentration of 4 mg/L,Acinetobacter sp. J2; with 324 and clavulanate,8 µg/mL
NS(=O)(=O)c1cccc(NC(=O)N2CC[C@@H]3[C@H]2C(=O)N3S(=O)(=O)[O-])c1.[Na+] [Compound 308],MIC of antibiotic at fixed inhibitor concentration (4 mg/L),[1],0.125 µg/mL
same,MIC of antibiotic at fixed inhibitor concentration (4 mg/L),Enterobacter cloacae P99,16 µg/mL
same,MIC of antibiotic at fixed inhibitor concentration (4 mg/L),Serratia marcescens S6,0.5 µg/mL
same,MIC of antibiotic at fixed inhibitor concentration (4 mg/L),[2],4 µg/mL
same,MIC of antibiotic at fixed inhibitor concentration (4 mg/L),[3],>32 µg/mL
same,MIC of antibiotic at fixed inhibitor concentration (4 mg/L),[4],0.5 µg/mL
same,MIC of antibiotic at fixed inhibitor concentration (4 mg/L),Acinetobacter sp. J2,>32 µg/mL
"O=C(Nc1ccc2[nH]c(=O)[nH]c2c1)N1CC[C@@H]2[C@H]1C(=O)N2S(=O)(=O)[O-].[Na+] [Compound 319, Sodium(1S,5R)-7-oxo-2-[N-(2-oxo(3-hydrobenzimidazol-5-yl))carbamoyl]-2,6-diazabicyclo[3.2.0]heptane-6-sulfonate]",MIC of antibiotic at fixed inhibitor concentration (4 mg/L),[1],0.125 µg/mL
same,MIC of antibiotic at fixed inhibitor concentration (4 mg/L),Enterobacter cloacae P99,16 µg/mL
same,MIC of antibiotic at fixed inhibitor concentration (4 mg/L),Serratia marcescens S6,0.25 µg/mL
same,MIC of antibiotic at fixed inhibitor concentration (4 mg/L),[2],4 µg/mL
same,MIC of antibiotic at fixed inhibitor concentration (4 mg/L),[3],>32 µg/mL
same,MIC of antibiotic at fixed inhibitor concentration (4 mg/L),[4],0.25 µg/mL
same,MIC of antibiotic at fixed inhibitor concentration (4 mg/L),Acinetobacter sp. J2,>32 µg/mL
